Experimental data: ChEMBL document CHEMBL4393679, “Structure-Guided Drug Design of 6-Substituted Adenosine Analogues as Potent Inhibitors of Mycobacterium tuberculosis Adenosine Kinase” (J Med Chem, 2019)

Legend:
Assay type in all cases: functional
[1] = test system: Mycobacterium tuberculosis; assay: Antimycobacterial activity against Mycobacterium tuberculosis H37Rv harboring G262S mutant by microplate alamar blue assay
[2] = test system: Mycobacterium tuberculosis; assay: Antimycobacterial activity against Mycobacterium tuberculosis H37Rv harboring Q172P mutant by microplate alamar blue assay
[3] = test system: Mycobacterium tuberculosis; assay: Antimycobacterial activity against Mycobacterium tuberculosis H37Rv harboring D251N mutant by microplate alamar blue assay

Measured: MIC

Nc1ncnc2c1c(I)cn2[C@@H]1O[C@H](CO)[C@@H](O)[C@H]1O [IODOTUBERCIDIN]
>100 µM: [1] | [2] | [3]
